Assay results from publication PMC11876601 (Molecular Systems Biology, 2025).
Read-outs that look alike come from different tables or passages of the source.

Legend:
Assay in all cases: cells
AsPC-1 [1] = tested on: AsPC-1; set-up: ATPlite luminescence viability of PDAC cell lines, 11-dose single-agent curves, 4-parameter fit; conditions: Homo sapiens, ASPC1, 72 h, read-out: EC50 [nM]
Summary of the method: (§1)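 Drug-combination screening used cells plated at 1000 to 5000 per well one day before treatment. Final DMSO was 0.2%. Each plate held untreated negative-control wells and 5 µM staurosporine positive-control wells.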

Capan-1 [2] = tested on: Capan-1; set-up: ATPlite luminescence viability of PDAC cell lines, 11-dose single-agent curves, 4-parameter fit; conditions: Homo sapiens, CAPAN-1, 72 h, read-out: EC50 [nM]
Summary of the method: as §1

Colo-357 [3] = tested on: Colo-357; set-up: ATPlite luminescence viability of PDAC cell lines, 11-dose single-agent curves, 4-parameter fit; conditions: Homo sapiens, COLO357, 72 h, read-out: EC50 [nM]
Summary of the method: as §1

Dan-G [4] = tested on: Dan-G; set-up: ATPlite luminescence viability of PDAC cell lines, 11-dose single-agent curves, 4-parameter fit; conditions: 72 h, read-out: EC50 [nM]
Summary of the method: as §1

FAMPAC [5] = tested on: FAMPAC; set-up: ATPlite luminescence viability of PDAC cell lines, 11-dose single-agent curves, 4-parameter fit; conditions: 72 h, read-out: EC50 [nM]
Summary of the method: as §1

MiaPaCa-2 [6] = tested on: MiaPaCa-2; set-up: ATPlite luminescence viability of PDAC cell lines, 11-dose single-agent curves, 4-parameter fit; conditions: Homo sapiens, MIA PaCa-2, 72 h, read-out: EC50 [nM]
Summary of the method: as §1

PANC-1 [7] = tested on: PANC-1; set-up: ATPlite luminescence viability of PDAC cell lines, 11-dose single-agent curves, 4-parameter fit; conditions: Homo sapiens, PANC-1, 72 h, read-out: EC50 [nM]
Summary of the method: as §1

PSN-1 [8] = tested on: PSN-1; set-up: ATPlite luminescence viability of PDAC cell lines, 11-dose single-agent curves, 4-parameter fit; conditions: Homo sapiens, PSN1, 72 h, read-out: EC50 [nM]
Summary of the method: as §1

PaTu-8988-T [9] = tested on: PaTu-8988-T; set-up: ATPlite luminescence viability of PDAC cell lines, 11-dose single-agent curves, 4-parameter fit; conditions: Homo sapiens, PaTu 8988t, 72 h, read-out: EC50 [nM]
Summary of the method: as §1

Suit2-07 [10] = tested on: Suit2-07; set-up: ATPlite luminescence viability of PDAC cell lines, 11-dose single-agent curves, 4-parameter fit; conditions: 72 h, read-out: EC50 [nM]
Summary of the method: as §1

HPDE [11] = tested on: HPDE; set-up: Viability of PDAC cell lines, ATPlite luminescence, 11-dose single-agent curve fit; conditions: HPDE, 72 h, read-out: EC50 [nM]
Summary of the method: (§2)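 screening used cells plated at 1000 to 5000 per well one day before treatment. Final DMSO was 0.2%. Each plate held untreated negative-control wells and 5 µM staurosporine positive-control wells.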

HuP-T4 = tested on: HuP-T4; set-up: Viability of PDAC cell lines, ATPlite luminescence, 11-dose single-agent curve fit; conditions: Homo sapiens, HuP-T4, 72 h, read-out: EC50 [nM]
Summary of the method: as §2

BxPC-3 [12] = tested on: BxPC-3; set-up: ATPlite luminescence viability of PDAC cell lines, 11-dose single-agent curves, 4-parameter fit; conditions: Homo sapiens, BXPC-3, 72 h, read-out: EC50 [nM]
Summary of the method: as §1

AsPC-1 [13] = tested on: AsPC-1; set-up: Viability of PDAC cell lines, ATPlite luminescence, 11-dose single-agent curve fit; conditions: Homo sapiens, ASPC1, 72 h, read-out: EC50 [nM]
Summary of the method: as §2

PANC-1 [14] = tested on: PANC-1; set-up: Viability of PDAC cell lines, ATPlite luminescence, 11-dose single-agent curve fit; conditions: Homo sapiens, PANC-1, 72 h, read-out: EC50 [nM]
Summary of the method: as §2

Suit2-07 [15] = tested on: Suit2-07; set-up: Viability of PDAC cell lines, ATPlite luminescence, 11-dose single-agent curve fit; conditions: 72 h, read-out: EC50 [nM]
Summary of the method: as §2

BxPC-3 [16] = tested on: BxPC-3; set-up: Viability of PDAC cell lines, ATPlite luminescence, 11-dose single-agent curve fit; conditions: Homo sapiens, BXPC-3, 72 h, read-out: EC50 [nM]
Summary of the method: as §2

Dan-G [17] = tested on: Dan-G; set-up: Viability of PDAC cell lines, ATPlite luminescence, 11-dose single-agent curve fit; conditions: 72 h, read-out: EC50 [nM]
Summary of the method: as §2

FAMPAC [18] = tested on: FAMPAC; set-up: Viability of PDAC cell lines, ATPlite luminescence, 11-dose single-agent curve fit; conditions: 72 h, read-out: EC50 [nM]
Summary of the method: as §2

MiaPaCa-2 [19] = tested on: MiaPaCa-2; set-up: Viability of PDAC cell lines, ATPlite luminescence, 11-dose single-agent curve fit; conditions: Homo sapiens, MIA PaCa-2, 72 h, read-out: EC50 [nM]
Summary of the method: as §2

PSN-1 [20] = tested on: PSN-1; set-up: Viability of PDAC cell lines, ATPlite luminescence, 11-dose single-agent curve fit; conditions: Homo sapiens, PSN1, 72 h, read-out: EC50 [nM]
Summary of the method: as §2

PaTu-8988-T [21] = tested on: PaTu-8988-T; set-up: Viability of PDAC cell lines, ATPlite luminescence, 11-dose single-agent curve fit; conditions: Homo sapiens, PaTu 8988t, 72 h, read-out: EC50 [nM]
Summary of the method: as §2

HPDE [22] = tested on: HPDE; set-up: ATPlite luminescence viability of PDAC cell lines, 11-dose single-agent curves, 4-parameter fit; conditions: HPDE, 72 h, read-out: EC50 [nM]
Summary of the method: as §1

Capan-1 [23] = tested on: Capan-1; set-up: Viability of PDAC cell lines, ATPlite luminescence, 11-dose single-agent curve fit; conditions: Homo sapiens, CAPAN-1, 72 h, read-out: EC50 [nM]
Summary of the method: as §2

Colo-357 [24] = tested on: Colo-357; set-up: Viability of PDAC cell lines, ATPlite luminescence, 11-dose single-agent curve fit; conditions: Homo sapiens, COLO357, 72 h, read-out: EC50 [nM]
Summary of the method: as §2

Row | SMILES | EC50 (AsPC-1 [1]) [nM] | EC50 (Capan-1 [2]) [nM] | EC50 (Colo-357 [3]) [nM] | EC50 (Dan-G [4]) [nM] | EC50 (FAMPAC [5]) [nM] | EC50 (MiaPaCa-2 [6]) [nM] | EC50 (PANC-1 [7]) [nM] | EC50 (PSN-1 [8]) [nM] | EC50 (PaTu-8988-T [9]) [nM] | EC50 (Suit2-07 [10]) [nM] | EC50 (HPDE [11]) [nM] | EC50 (HuP-T4) [nM] | EC50 (BxPC-3 [12]) [nM] | EC50 (AsPC-1 [13]) [nM] | EC50 (PANC-1 [14]) [nM] | EC50 (PSN-1 [20]) [nM] | EC50 (HPDE [22]) [nM] | other results
1 | O=C1NC(=O)[C@@H](c2cn3c4c(cccc24)CCC3)[C@@H]1c1c[nH]c2ccccc12 [Tivantinib] | 346 | 603 | 536 | 412 | 317 | 313 | 389 | 215 | 347 | 191 | 143 | > 10000 | – | – | – | – | – | –
2 | COc1cc2nccc(Oc3ccc(NC(=O)Nc4cc(C)on4)c(Cl)c3)c2cc1OC [Tivozanib] | – | 9830 | 6590 | > 10000 | > 10000 | > 10000 | – | 5040 | > 10000 | – | > 10000 | 4120 | > 10000 | 6600 | > 10000 | – | – | EC50 (Suit2-07 [15]): > 10000 nM
3 | O=C(Nc1ccc(OC(F)(F)Cl)cc1)c1cnc(N2CC[C@@H](O)C2)c(-c2cc[nH]n2)c1 [Asciminib] | – | 3820 | > 10000 | – | – | – | – | – | – | – | 4830 | 3860 | – | 1470 | 4520 | 1730 | – | EC50 (BxPC-3 [16]): 794 nM; EC50 (Dan-G [17]): 7610 nM; EC50 (FAMPAC [18]): > 10000 nM; EC50 (MiaPaCa-2 [19]): 2770 nM; EC50 (PaTu-8988-T [21]): 1350 nM; EC50 (Suit2-07 [15]): 3.54 nM
4 | C[C@@H](Oc1cc(-c2cnn(C3CCNCC3)c2)cnc1N)c1c(Cl)ccc(F)c1Cl [Crizotinib] | 7880 | – | 3820 | 2500 | 5990 | 840 | > 10000 | 10200 | > 10000 | 2260 | – | 2760 | > 10000 | – | – | – | 8110 | EC50 (Capan-1 [23]): 1780 nM
5 | CN1CCN(CCOc2cc(OC3CCOCC3)c3c(Nc4c(Cl)ccc5c4OCO5)ncnc3c2)CC1 [Saracatinib] | – | 2210 | – | 1160 | 4910 | 51.6 | – | – | – | 1340 | – | > 10000 | 863 | 4140 | 142 | 4260 | 1430 | EC50 (Colo-357 [24]): 869 nM; EC50 (PaTu-8988-T [21]): 244 nM
6 | CNC(=O)c1cc(Oc2ccc(NC(=O)Nc3ccc(Cl)c(C(F)(F)F)c3)c(F)c2)ccn1 [Regorafenib] | 2150 | 6350 | – | 4480 | > 10000 | 4480 | > 10000 | 1430 | > 10000 | > 10000 | – | > 10000 | 7410 | – | – | – | 9210 | EC50 (Colo-357 [24]): 7480 nM
7 | CN1CCC(COc2cnc(-c3cccc(Cn4nc(-c5cccc(C#N)c5)ccc4=O)c3)nc2)CC1 [Tepotinib] | > 10000 | 23.4 | 11.5 | 8.91 | > 10000 | 7010 | 3.11 | 4160 | 6390 | 7810 | 7650 | 268 | 10300 | – | – | – | – | –
8 | Cc1nc(-c2cn3c(n2)-c2ccc(-c4cnn(C(C)(C)C(N)=O)c4)cc2OCC3)n(C(C)C)n1 [Taselisib] | 873 | 2920 | 27.1 | 37.1 | – | 446 | 1570 | – | 459 | 141 | – | 19.8 | 245 | – | – | 7930 | 826 | EC50 (FAMPAC [18]): > 10000 nM
